Among the data in PubChem BioAssay (NCI) are TGI and GI50 values, retold here.

Values joined by “and” are separate entries in the source; they are usually repeats but may differ in a detail not shown here. Equal values may be shown once.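 Step 1: Grow cells in 96-well plates. Step 2: Expose to compound for 48 hours at 5 concentrations. Step 3: Interpolate endpoints linearly; if unreached, use highest concentration. At the GI50, growth is halved. TGI: total growth inhibition.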

Test in all cases: NCI tumour cell line growth inhibition, 48 h
Assay [1] has as its system HCT-116 colon.
Assay [2] concerns RXF 393 renal.
The test system of assay [3] is OVCAR-4 ovarian.
Assay [4] concerns ACHN renal.
For assay [5], the system named is 786-0 renal.
Assay [6] relates to HCC-2998 colon.
Assay [7] deals with MCF7 breast.
For assay [8], the system named is OVCAR-8 ovarian.
The subject of assay [9] is HT29 colon.
Assay [10] concerns RPMI-8226 leukemia.

As to `O=C(O)c1ccc(C(=O)O)c(C(=O)Nc2ccc3c(c2)C(=O)c2ccccc2-3)c1`, the TGI in assay [1], in assay [2], in assay [3], in assay [4], in assay [5] and in assay [6] was > 100 µM each time. Besides, the TGI in [7], in [8], in assay [9] and in [10] was > 100 µM each time.

Take `COc1cc2c(cc1OC)C1Cc3cc(OC)c(OC)cc3C(C2)N1C`: the TGI is > 75 µM in [1]; > 75 µM in [2]; > 100 µM in [3]; > 100 µM in assay [4]; > 100 µM in [5]; > 100 µM in assay [6]. Further, the TGI in assay [7] is > 75 µM; in assay [8], > 100 µM; in assay [9] it was > 100 µM; in assay [10], > 100 µM. Also, the GI50 in assay [9] was 23.5 µM and 54 µM; in [10] it was 17.1 µM and > 100 µM.

As to `CC(=O)Oc1ccc(/C(=C(\C)c2ccc(Cl)cc2)c2ccc(OCCN3CCCCC3)cc2)cc1`, the GI50 in [1] is 1.34 µM; in assay [2] it was 1.46 µM; in assay [3] it was 1.93 µM; in assay [4] it was 2.13 µM; in assay [5], 1.59 µM; in [6] it was 1.87 µM. The figures for the GI50 in [8], in assay [9] and in assay [10] were 2.15 µM, 1.19 µM and 2.1 µM, respectively. Besides, the TGI worked out at 2.72 µM in assay [1]; 3 µM in assay [2]; 5.43 µM in [3]; 4.03 µM in [4]; 3.16 µM in [5]; 3.68 µM in assay [6]. Moreover, the TGI was 2.55 µM in assay [7], 4.88 µM in [8], 3.24 µM in [9] and 4.64 µM in assay [10].

For the molecule `O=C1OCC2=C1C(c1ccc(Cl)c(Cl)c1)c1cc3c(cc1N2CCO)CCC3` (stereo unspecified), the GI50 in assay [1] is 0.234 µM; in assay [2] it was 0.141 µM; in assay [3] it was 0.326 µM; in assay [4] it was 0.371 µM; in [5], 0.242 µM; in [6], 0.418 µM. The GI50 in assay [7] was 0.157 µM; in assay [8] it was 0.221 µM; in [9], 0.164 µM; in assay [10], 0.237 µM. Moreover, the TGI in assay [1] is 6.59 µM; in assay [2], 1.46 µM; in [3], 21.4 µM; in assay [4], 12.2 µM; in [5], 10.2 µM; in [6], 4.29 µM. Further, the TGI in [7] was 7.2 µM; in [8] it was 8.27 µM; in [9], 0.646 µM; in assay [10], 15.1 µM.

Consider `CCCCCCCCCCCCOC1C(CNC(=O)C2OC3OC(C)(C)OC3C2NC(=O)Nc2ccc(CC(=O)NC(Cc3ccccc3)C(=O)O)cc2)OC2OC(C)(C)OC21` (stereo unspecified), for which the GI50 in assay [1] was > 25 µM; in [2] it was 13.3 µM; in assay [3] it was > 25 µM; in [4], > 25 µM; in assay [5], > 25 µM; in assay [6], > 25 µM. The GI50 in assay [7] is > 25 µM; in [8], > 25 µM; in assay [9] it was > 25 µM; in assay [10], 15.9 µM. Also, the TGI in assay [1], in [2], in assay [3], in [4], in [5] and in assay [6] was > 25 µM each time. Further, the TGI in [7], in [8], in assay [9] and in assay [10] was > 25 µM throughout.

In the case of `NC(N)=N/N=C/c1ccc(-c2ccc(-c3cc(Cl)cc(Cl)c3)s2)cc1`, the GI50 was 1.31 µM in assay [1]; 1.67 µM in assay [2]; 1.9 µM in assay [3]; 1.75 µM in assay [4]; 1.74 µM in assay [5]; 1.94 µM in assay [6]. Moreover, the GI50 in [7] is 1.1 µM; in [8] it was 2.48 µM; in [9], 1.91 µM; in assay [10], 1.78 µM. In addition, the TGI in [1] was 2.99 µM; in [2], 3.37 µM; in assay [3], 3.77 µM; in assay [4], 3.29 µM; in [5] it was 3.66 µM; in [6], 3.83 µM. The TGI in [7] is 3.07 µM; in [8], 6.34 µM; in assay [9] it was 4.81 µM; in assay [10], 4.49 µM.

With `O=C(Nc1ccccc1)c1cc(S(=O)(=O)Nc2nc3ccccc3o2)c(SCc2ccccc2)cc1Cl`, the GI50 in assay [1] was 25.1 µM; in [2] it was 19.7 µM; in assay [3] it was 33.8 µM; in [4], 18.2 µM; in assay [5] it was 17.3 µM; in [6] it was 18.7 µM. In addition, the GI50 in assay [7] is 28.4 µM; in assay [8], 24.5 µM; in [9] it was 43 µM; in [10] it was 15.4 µM. In addition, the TGI is 66.1 µM in [1]; 47.7 µM in assay [2]; > 100 µM in assay [3]; 37 µM in assay [4]; 38.2 µM in assay [5]; 34.8 µM in assay [6]. For the same molecule, the TGI in assay [7] was 80.6 µM; in assay [8], 65 µM; in [9] it was > 100 µM; in assay [10] it was 46.8 µM.

Regarding `CC(=O)N1N=C2/C(=C/c3ccc(Cl)cc3)CC(C)CC2C1c1ccc(Cl)cc1` (stereo unspecified), the GI50 in [1] is 12.6 µM; in assay [2], 15.3 µM; in [3], 27.9 µM; in assay [4] it was 33.2 µM; in assay [5] it was 18.2 µM; in assay [6], 19.1 µM. Moreover, the GI50 in [7] is 19.2 µM; in [8], 24.9 µM; in assay [9] it was 21.7 µM; in assay [10], 9.14 µM. The TGI was 25.2 µM in [1]; 33.9 µM in assay [2]; > 100 µM in assay [3]; > 100 µM in [4]; 39.1 µM in [5]; 38.1 µM in [6]. The TGI was 54.2 µM in [7], > 100 µM in assay [8], 91.5 µM in assay [9] and 32.6 µM in assay [10].
